Measured values from PubChem BioAssay AID248 (DTP/NCI, 2004).
Where “and” joins values, the source holds several entries; their conditions need not be identical. Equal entries are not always repeated. Inconclusive results and toxic doses are left out. Cut-off read from the data, not from the text of the source: active = T/C of 150% or more; inactive = T/C below 125%.

System: L1210 leukemia ip in BDF1 mice, survival T/C
Assay: NCI In Vivo Anticancer Drug Screen. Data for tumor model L1210 Leukemia (intraperitoneal) in B6D2F1 (BDF1) mice
Details: endpoint: mean survival time, higher = longer survival
Method in brief: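 Tumor cells were implanted, animals were treated, and survival was followed. The result divides the treated measurement by the vehicle-control measurement.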

[1] = dose: 100.0 mg/kg/injection, schedule: Q04DX003 (ip), vehicle: saline with Tween-80
[2] = dose: 200.0 mg/kg/injection, schedule: Q04DX003 (ip), vehicle: saline with Tween-80
[3] = dose: 400.0 mg/kg/injection, schedule: Q04DX003 (ip), vehicle: saline with Tween-80
[4] = dose: 100.0 mg/kg/injection, schedule: Q01DX009 (ip), vehicle: Klucel (hydroxypropylcellulose) (HPC)
[5] = dose: 100.0 mg/kg/injection, schedule: Q04DX003 (ip), vehicle: Klucel (hydroxypropylcellulose) (HPC)
[6] = dose: 200.0 mg/kg/injection, schedule: Q01DX009 (ip), vehicle: Klucel (hydroxypropylcellulose) (HPC)
[7] = dose: 200.0 mg/kg/injection, schedule: Q04DX003 (ip), vehicle: Klucel (hydroxypropylcellulose) (HPC)
[8] = dose: 400.0 mg/kg/injection, schedule: Q01DX009 (ip), vehicle: Klucel (hydroxypropylcellulose) (HPC)
[9] = dose: 400.0 mg/kg/injection, schedule: Q04DX003 (ip), vehicle: Klucel (hydroxypropylcellulose) (HPC)
[10] = dose: 100.0 mg/kg/injection, schedule: Q01DX009 (ip), vehicle: saline with Tween-80

Measured: T/C

Cn1nc(C(=O)O)c(=O)[nH]c1=O
inactive: dose: 100.0 mg/kg/injection, schedule: Q01DX Z (ip), vehicle: methylcellulose (MC) 97 % of control

Nc1[nH]cnc(=S)c1NC=O
inactive: dose: 100.0 mg/kg/injection, schedule: Q01DX001 (ip), vehicle: acetone 92 % of control | dose: 200.0 mg/kg/injection, schedule: Q01DX001 (ip), vehicle: acetone 92 % of control | dose: 400.0 mg/kg/injection, schedule: Q01DX001 (ip), vehicle: acetone 88 % of control

CC1CCC(NC(=O)NCCCl)c2ccccc21 (centres undefined)
inactive: dose: 20.0 mg/kg/injection, schedule: Q04DX003 (ip), vehicle: Klucel (hydroxypropylcellulose) (HPC) 102 % of control | dose: 40.0 mg/kg/injection, schedule: Q04DX003 (ip), vehicle: Klucel (hydroxypropylcellulose) (HPC) 100 % of control | dose: 80.0 mg/kg/injection, schedule: Q04DX003 (ip), vehicle: Klucel (hydroxypropylcellulose) (HPC) 100 % of control

COC(=O)CC(=O)OCC1C=CCC=C1
inactive: [1] 106 % of control | [2] 95 % of control | [3] 92 % of control

ClCCN(CCCl)c1ccc(CNCCCNCc2ccc(N(CCCl)CCCl)cc2)cc1
inactive: dose: 5.0 mg/kg/injection, schedule: Q01DX001 (ip), vehicle: carboxymethylcellulose (CMC) 105 % of control | dose: 10.0 mg/kg/injection, schedule: Q01DX001 (ip), vehicle: carboxymethylcellulose (CMC) 110 % of control | dose: 20.0 mg/kg/injection, schedule: Q01DX001 (ip), vehicle: carboxymethylcellulose (CMC) 103 % of control

CCCCCCOC(=O)CCC(=O)OCCCCCC
inactive: [4] 97 % of control | [5] 92 % of control | [6] 101 % of control | [7] 92 % of control | [8] 97 % of control | [9] 97 % of control

N#Cc1cn(C2OC(CO)C(O)C2O)c2ncnc(N)c12 (centres undefined)
inactive: dose: 0.04 mg/kg/injection, schedule: Q01DX009 (ip), vehicle: saline 119 % of control | dose: 0.08 mg/kg/injection, schedule: Q01DX005 (ip), vehicle: saline 86 % of control | dose: 0.09 mg/kg/injection, schedule: Q01DX009 (ip), vehicle: saline 107 % of control | dose: 0.12 mg/kg/injection, schedule: Q01DX005 (ip), vehicle: saline 96 % of control

CC(=O)OCC1OC(N2C(=O)/C(=C/c3ccc(Cl)cc3)SC2=S)C(OC(C)=O)C(OC(C)=O)C1OC(C)=O (centres undefined)
inactive: dose: 25.0 mg/kg/injection, schedule: Q01DX005 (ip), vehicle: other 97 % of control

CCOC(=O)N(c1ccccc1)C1OCC(OC(C)=O)C(OC(C)=O)C1OC(C)=O (centres undefined)
inactive: dose: 100.0 mg/kg/injection, schedule: Q01DX009 (ip), vehicle: saline 97 % of control | dose: 100.0 mg/kg/injection, schedule: Q04DX003 (ip), vehicle: water 97 % of control | dose: 200.0 mg/kg/injection, schedule: Q01DX009 (ip), vehicle: saline 93 % of control | dose: 200.0 mg/kg/injection, schedule: Q04DX003 (ip), vehicle: water 97 % of control | dose: 400.0 mg/kg/injection, schedule: Q01DX009 (ip), vehicle: saline 94 % of control | dose: 400.0 mg/kg/injection, schedule: Q04DX003 (ip), vehicle: water 94 % of control

CC(Br)C(=O)Nc1ccc(C(=O)O)c(O)c1 (centres undefined)
inactive: dose: 25.0 mg/kg/injection, schedule: Q01DX009 (ip), vehicle: saline with Tween-80 112 % of control | dose: 50.0 mg/kg/injection, schedule: Q01DX009 (ip), vehicle: saline with Tween-80 98 % of control | [10] 100 % of control and 107 % of control

C/C=C1\CCOC1=O
inactive: dose: 100.0 mg/kg/injection, schedule: Q04DX002 (ip), vehicle: saline 94 % of control | dose: 200.0 mg/kg/injection, schedule: Q04DX002 (ip), vehicle: saline 91 % of control | dose: 400.0 mg/kg/injection, schedule: Q04DX002 (ip), vehicle: saline 105 % of control

NCCCNCC1C(c2ccccc2)C1c1ccccc1 (centres undefined)
inactive: dose: 25.0 mg/kg/injection, schedule: Q04DX002 (ip), vehicle: Klucel (hydroxypropylcellulose) (HPC) 100 % of control | dose: 50.0 mg/kg/injection, schedule: Q04DX002 (ip), vehicle: Klucel (hydroxypropylcellulose) (HPC) 114 % of control

Cc1nc(N)[nH]c(=O)c1CCCNc1ccc(/C=C/C(=O)CCl)cc1
inactive: dose: 50.0 mg/kg/injection, schedule: Q01DX Z (ip), vehicle: carboxymethylcellulose (CMC) 90 % of control | dose: 100.0 mg/kg/injection, schedule: Q01DX Z (ip), vehicle: carboxymethylcellulose (CMC) 86 % of control | dose: 200.0 mg/kg/injection, schedule: Q01DX Z (ip), vehicle: carboxymethylcellulose (CMC) 90 % of control | dose: 400.0 mg/kg/injection, schedule: Q01DX Z (ip), vehicle: carboxymethylcellulose (CMC) 90 % of control

COc1ccc2c(c1)CCC1=C2CCC2C(=O)OC(=O)C12C (centres undefined)
inactive: [4] 98 % of control | [5] 90 % of control | [6] 95 % of control | [7] 98 % of control | [8] 101 % of control | [9] 97 % of control

CC1(C)C=Cc2ccccc21
inactive: [1] 104 % of control | [2] 96 % of control

COc1ccccc1NC(=O)Nc1ccccc1Cl
inactive: [10] 88 % of control | [1] 89 % of control | dose: 200.0 mg/kg/injection, schedule: Q01DX009 (ip), vehicle: saline with Tween-80 112 % of control | [2] 92 % of control | dose: 400.0 mg/kg/injection, schedule: Q01DX009 (ip), vehicle: saline with Tween-80 92 % of control | [3] 89 % of control

C/C(=N/O)c1ccccc1NO
inactive: dose: 25.0 mg/kg/injection, schedule: Q01DX001 (ip), vehicle: carboxymethylcellulose (CMC) 89 % of control | dose: 50.0 mg/kg/injection, schedule: Q01DX001 (ip), vehicle: carboxymethylcellulose (CMC) 94 % of control | dose: 100.0 mg/kg/injection, schedule: Q01DX001 (ip), vehicle: carboxymethylcellulose (CMC) 96 % of control | dose: 200.0 mg/kg/injection, schedule: Q01DX001 (ip), vehicle: carboxymethylcellulose (CMC) 91 % of control | dose: 400.0 mg/kg/injection, schedule: Q01DX001 (ip), vehicle: carboxymethylcellulose (CMC) 86 % of control

CCCNC(=O)Oc1ccc(Nc2ccccc2)cc1
inactive: dose: 100.0 mg/kg/injection, schedule: Q04DX002 (ip), vehicle: Klucel (hydroxypropylcellulose) (HPC) 118 % of control | dose: 200.0 mg/kg/injection, schedule: Q04DX002 (ip), vehicle: Klucel (hydroxypropylcellulose) (HPC) 103 % of control | dose: 400.0 mg/kg/injection, schedule: Q04DX002 (ip), vehicle: Klucel (hydroxypropylcellulose) (HPC) 107 % of control

C1=NOC2c3ccc4ccccc4c3CCC12 (centres undefined)
inactive: [4] 95 % of control | [6] 93 % of control | [8] 93 % of control

CCOc1ccc([N+](=O)[O-])cc1N(C)C(C)=O
inactive: dose: 75.0 mg/kg/injection, schedule: Q01DX001 (ip), vehicle: saline 102 % of control | dose: 150.0 mg/kg/injection, schedule: Q01DX001 (ip), vehicle: saline 102 % of control | dose: 300.0 mg/kg/injection, schedule: Q01DX001 (ip), vehicle: saline 107 % of control

NC(=O)c1cccn1-c1cccc2c(-n3cccc3C(N)=O)cccc12
inactive: dose: 50.0 mg/kg/injection, schedule: Q04DX002 (ip), vehicle: saline with Tween-80 89 % of control

Cc1cccc2c1C(=O)OC2(CC(=O)O)c1ccccc1 (centres undefined)
inactive: dose: 37.5 mg/kg/injection, schedule: Q04DX002 (ip), vehicle: saline with Tween-80 101 % of control | dose: 75.0 mg/kg/injection, schedule: Q04DX002 (ip), vehicle: saline with Tween-80 101 % of control | dose: 150.0 mg/kg/injection, schedule: Q04DX002 (ip), vehicle: saline with Tween-80 101 % of control
